Results from patent US20260053932A1, “COMPOUNDS AND METHODS FOR THE TARGETED DEGRADATION OF ANDROGEN RECEPTOR AND ASSOCIATED METHODS OF USE” (Arvinas Operations, Inc., priority 2020, published 2026).

System: androgen receptor (AR) in LNCaP and/or VCaP cells
Experiment: Androgen Receptor ELISA assay (AR degradation)
Format: cell-based
Details: LNCaP and/or VCaP cells; 5 hours incubation; media with R1881; read-out: DC50 Code* (degradation of AR ELISA)
Summary of the method: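 VCaP cells grown ≥3 days, then treated 5 h with compound in media containing 1 nM R1881 (10× stock). Cells lysed and AR quantified by sandwich ELISA (mouse AR detection Ab, HRP anti-mouse, TMB). DC50 and Dmax derived from AR degradation.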

Row | DC50 | SMILES
1 | < 1 nM | COc1cc(O[C@H]2CC[C@H](NC(=O)c3cnc(N4CCC(CN(C(C)C)[C@H]5C[C@H](Oc6ccc7c(c6)C(=O)N(C6CCC(=O)NC6=O)C7=O)C5)CC4)cn3)CC2)ccc1C#N (stereo partly shown) [Compound 32, N-((1r,4r)-4-(4-cyano-3-methoxyphenoxy)cyclohexyl)-5-(4-((((1r,3r)-3-((2-(2,6-dioxopiperidin-3-yl)-1,3-dioxoisoindolin-5-yl)oxy)cyclobutyl) (isopropyl)amino)methyl)piperidin-1-yl)pyrazine-2-carboxamide]
2 | < 1 nM | CCN(CC1CCN(c2cnc(C(=O)N[C@H]3CC[C@H](Oc4ccc(C#N)c(OC)c4)CC3)cn2)CC1)[C@H]1C[C@H](Oc2ccc3c(c2)C(=O)N(C2CCC(=O)NC2=O)C3=O)C1 (stereo partly shown) [Compound 33, N-((1r,4r)-4-(4-cyano-3-methoxyphenoxy)cyclohexyl)-5-(4-((((1r,3r)-3-((2-(2,6-dioxopiperidin-3-yl)-1,3-dioxoisoindolin-5-yl)oxy)cyclobutyl)(ethyl)amino)methyl)piperidin-1-yl)pyrazine-2-carboxamide]
3 | < 1 nM | COc1cc(O[C@H]2CC[C@H](NC(=O)c3cnc(N4CCC(CN(C(C)C)[C@H]5C[C@H](Oc6ccc7c(c6)C(=O)N(C6CCC(=O)NC6=O)C7)C5)CC4)cn3)CC2)ccc1C#N (stereo partly shown) [Compound 34, N-((1r,4r)-4-(4-cyano-3-methoxyphenoxy)cyclohexyl)-5-(4-((((1r,3r)-3-((2-(2,6-dioxopiperidin-3-yl)-3-oxoisoindolin-5-yl)oxy)cyclobutyl) (isopropyl)amino)methyl)piperidin-1-yl)pyrazine-2-carboxamide]
4 | < 1 nM | CC(C)N(CC1CCN(c2cnc(C(=O)N[C@H]3CC[C@H](Oc4ccc(C#N)c(Cl)c4)CC3)cn2)CC1)[C@H]1CC[C@H](Oc2ccc3c(c2)C(=O)N(C2CCC(=O)NC2=O)C3=O)CC1 (stereo partly shown) [Compound 35, N-((1r,4r)-4-(3-chloro-4-cyanophenoxy)cyclohexyl)-5-(4-((((1r,4r)-4-((2-(2,6-dioxopiperidin-3-yl)-1,3-dioxoisoindolin-5-yl)oxy)cyclohexyl) (isopropyl)amino)methyl)piperidin-1-yl)pyrazine-2-carboxamide]
5 | < 1 nM | COc1cc(O[C@H]2CC[C@H](NC(=O)c3cnc(N4CC5(CC(CN(C(C)C)[C@H]6C[C@H](Oc7ccc8c(c7)C(=O)N(C7CCC(=O)NC7=O)C8=O)C6)C5)C4)nc3)CC2)ccc1C#N (stereo partly shown) [Compound 36, N-((1r,4r)-4-(4-cyano-3-methoxyphenoxy)cyclohexyl)-2-(6-((((1r,3r)-3-((2-(2,6-dioxopiperidin-3-yl)-1,3-dioxoisoindolin-5-yl)oxy)cyclobutyl) (isopropyl)amino)methyl)-2-azaspiro[3.3]heptan-2-yl)pyrimidine-5-carboxamide]
6 | < 1 nM | CC(C)N(CC1CN(c2cnc(C(=O)N[C@H]3CC[C@H](Oc4ccc(C#N)c(Cl)c4)CC3)cn2)C1)[C@H]1C[C@H](Oc2ccc3c(c2)C(=O)N(C2CCC(=O)NC2=O)C3=O)C1 (stereo partly shown) [Compound 37, N-((1r,4r)-4-(3-chloro-4-cyanophenoxy)cyclohexyl)-5-(3-((((1r,3r)-3-((2-(2,6-dioxopiperidin-3-yl)-1,3-dioxoisoindolin-5-yl)oxy)cyclobutyl) (isopropyl)amino)methyl)azetidin-1-yl)pyrazine-2-carboxamide]
7 | < 1 nM | COc1cc(O[C@H]2CC[C@H](NC(=O)c3cnc(N4CCC(CN(C(C)C)[C@H]5C[C@H](Oc6cc(OC)c7c(c6)C(=O)N(C6CCC(=O)NC6=O)C7=O)C5)CC4)cn3)CC2)ccc1C#N (stereo partly shown) [Compound 38, N-((1r,4r)-4-(4-cyano-3-methoxyphenoxy)cyclohexyl)-5-(4-((((1r,3r)-3-((2-(2,6-dioxopiperidin-3-yl)-7-methoxy-1,3-dioxoisoindolin-5-yl)oxy)cyclobutyl) (isopropyl)amino)methyl)piperidin-1-yl)pyrazine-2-carboxamide]
8 | < 1 nM | COc1cc(O[C@H]2CC[C@H](NC(=O)c3cnc(N4CCC(CN(C)[C@H]5C[C@H](Oc6ccc7c(c6)C(=O)N(C6CCC(=O)NC6=O)C7=O)C5)CC4)cn3)CC2)ccc1C#N (stereo partly shown) [Compound 39, N-((1r,4r)-4-(4-cyano-3-methoxyphenoxy)cyclohexyl)-5-(4-((((1r,3r)-3-((2-(2,6-dioxopiperidin-3-yl)-1,3-dioxoisoindolin-5-yl)oxy)cyclobutyl) (methyl)amino)methyl)piperidin-1-yl)pyrazine-2-carboxamide]
9 | < 1 nM | CC(C)Oc1cc(N2CCN(CC3CCN(c4ccc(C(=O)N[C@H]5CC[C@H](Oc6ccc(C#N)c(Cl)c6)CC5)nn4)CC3)CC2)cc2c1C(=O)N(C1CCC(=O)NC1=O)C2=O (stereo partly shown) [Compound 40, N-((1r,4r)-4-(3-chloro-4-cyanophenoxy)cyclohexyl)-6-(4-((4-(2-(2,6-dioxopiperidin-3-yl)-7-isopropoxy-1,3-dioxoisoindolin-5-yl)piperazin-1-yl)methyl)piperidin-1-yl)pyridazine-3-carboxamide]
10 | < 1 nM | CC(C)N(CC1CCN(c2cnc(C(=O)N[C@H]3CC[C@H](Oc4ccc(C#N)c(Cl)c4)CC3)cn2)CC1)[C@H]1C[C@H](Oc2ccc3c(c2)C(=O)N(C2CCC(=O)NC2=O)C3)C1 (stereo partly shown) [Compound 41, N-((1r,4r)-4-(3-chloro-4-cyanophenoxy)cyclohexyl)-5-(4-((((1r,3r)-3-((2-(2,6-dioxopiperidin-3-yl)-3-oxoisoindolin-5-yl)oxy)cyclobutyl) (isopropyl)amino)methyl)piperidin-1-yl)pyrazine-2-carboxamide]
11 | < 1 nM | CC(C)N(CC1CCN(c2cnc(C(=O)N[C@H]3CC[C@H](Oc4ccc(C#N)c(Cl)c4)CC3)cn2)CC1)[C@H]1C[C@H](Oc2cc(F)c3c(c2)C(=O)N(C2CCC(=O)NC2=O)C3=O)C1 (stereo partly shown) [Compound 42, N-((1r,4r)-4-(3-chloro-4-cyanophenoxy)cyclohexyl)-5-(4-((((1r,3r)-3-((2-(2,6-dioxopiperidin-3-yl)-7-fluoro-1,3-dioxoisoindolin-5-yl)oxy)cyclobutyl) (isopropyl)amino)methyl)piperidin-1-yl)pyrazine-2-carboxamide]
12 | < 1 nM | CCOc1cc(O[C@H]2CC[C@H](NC(=O)c3cnc(N4CC(CN(C(C)C)[C@H]5C[C@H](Oc6ccc7c(c6)C(=O)N(C6CCC(=O)NC6=O)C7=O)C5)C4)cn3)CC2)ccc1C#N (stereo partly shown) [Compound 43, N-((1r,4r)-4-(4-cyano-3-ethoxyphenoxy)cyclohexyl)-5-(3-((((1r,3r)-3-((2-(2,6-dioxopiperidin-3-yl)-1,3-dioxoisoindolin-5-yl)oxy)cyclobutyl) (isopropyl)amino)methyl)azetidin-1-yl)pyrazine-2-carboxamide]
13 | < 1 nM | CC(C)Oc1cc(O[C@H]2C[C@H](N(CC3CCN(c4cnc(C(=O)N[C@H]5CC[C@H](Oc6ccc(C#N)c(Cl)c6)CC5)cn4)CC3)C(C)C)C2)cc2c1C(=O)N(C1CCC(=O)NC1=O)C2=O (stereo partly shown) [Compound 44, N-((1r,4r)-4-(3-chloro-4-cyanophenoxy)cyclohexyl)-5-(4-((((1r,3r)-3-((2-(2,6-dioxopiperidin-3-yl)-7-isopropoxy-1,3-dioxoisoindolin-5-yl)oxy)cyclobutyl) (isopropyl)amino)methyl)piperidin-1-yl)pyrazine-2-carboxamide]
14 | < 1 nM | CC(C)N(CC1CCN(c2cnc(C(=O)N[C@H]3CC[C@H](Oc4ccc(C#N)c(Cl)c4)CC3)cn2)CC1)[C@H]1C[C@H](Oc2c(F)cc3c(c2F)C(=O)N(C2CCC(=O)NC2=O)C3=O)C1 (stereo partly shown) [Compound 45, N-((1r,4r)-4-(3-chloro-4-cyanophenoxy)cyclohexyl)-5-(4-((((1r,3r)-3-((2-(2,6-dioxopiperidin-3-yl)-4,6-difluoro-1,3-dioxoisoindolin-5-yl)oxy)cyclobutyl) (isopropyl)amino)methyl)piperidin-1-yl)pyrazine-2-carboxamide]
15 | < 1 nM | Cc1cc(O[C@H]2CC[C@H](NC(=O)c3cnc(N4CCC(CN(C(C)C)[C@H]5C[C@H](Oc6cc(F)c7c(c6)C(=O)N(C6CCC(=O)NC6=O)C7=O)C5)CC4)cn3)CC2)cc(C)c1C#N (stereo partly shown) [Compound 46, N-((1r,4r)-4-(4-cyano-3,5-dimethylphenoxy)cyclohexyl)-5-(4-((((1r,3r)-3-((2-(2,6-dioxopiperidin-3-yl)-7-fluoro-1,3-dioxoisoindolin-5-yl)oxy)cyclobutyl) (isopropyl)amino)methyl)piperidin-1-yl)pyrazine-2-carboxamide]
16 | < 1 nM | CC(C)N(CC1CCN(c2ccc(C(=O)N[C@H]3CC[C@H](Oc4ccc(C#N)c(Cl)c4)CC3)nn2)CC1)[C@H]1CC[C@H](Oc2ccc3c(c2)C(=O)N(C2CCC(=O)NC2=O)C3=O)CC1 (stereo partly shown) [Compound 47, N-((1r,4r)-4-(3-chloro-4-cyanophenoxy)cyclohexyl)-6-(4-((((1r,4r)-4-((2-(2,6-dioxopiperidin-3-yl)-1,3-dioxoisoindolin-5-yl)oxy)cyclohexyl) (isopropyl)amino)methyl)piperidin-1-yl)pyridazine-3-carboxamide]
17 | < 1 nM | N#Cc1ccc(O[C@H]2CC[C@H](NC(=O)c3cnc(N4CCC(CN(CC5COC5)[C@H]5C[C@H](Oc6ccc7c(c6)C(=O)N(C6CCC(=O)NC6=O)C7)C5)CC4)cn3)CC2)cc1Cl (stereo partly shown) [Compound 48, N-((1r,4r)-4-(3-chloro-4-cyanophenoxy)cyclohexyl)-5-(4-((((1r,3r)-3-((2-(2,6-dioxopiperidin-3-yl)-3-oxoisoindolin-5-yl)oxy)cyclobutyl)(oxetan-3-ylmethyl)amino)methyl)piperidin-1-yl)pyrazine-2-carboxamide]
18 | < 1 nM | N#Cc1ccc(O[C@H]2CC[C@H](NC(=O)c3ccc(N4CCC(CN5CCN(c6ccc7c(c6F)C(=O)N(C6CCC(=O)NC6=O)C7=O)CC5)CC4)nn3)CC2)cc1Cl (stereo partly shown) [Compound 49]
19 | < 1 nM | CC(=O)N(CC1CCN(c2cnc(C(=O)N[C@H]3CC[C@H](Oc4cc(C)c(C#N)c(C)c4)CC3)cn2)CC1)[C@H]1C[C@H](Oc2ccc3c(c2)C(=O)N(C2CCC(=O)NC2=O)C3=O)C1 (stereo partly shown) [Compound 50, N-((1r,4r)-4-(4-cyano-3,5-dimethylphenoxy)cyclohexyl)-5-(4-((N-((1r,3r)-3-((2-(2,6-dioxopiperidin-3-yl)-1,3-dioxoisoindolin-5-yl)oxy)cyclobutyl)acetamido)methyl)piperidin-1-yl)pyrazine-2-carboxamide]
